We go through six molecules from patent US20100035822A1, “PROLINE-RICH PEPTIDES, PHARMACEUTICAL COMPOSITION, USE OF ONE OR MORE PEPTIDES AND METHOD OF TREATMENT” (priority 2006, published 2010).

Entries after “also recorded” stand apart in the source; their conditions may differ. Square brackets hold non-standard residues; d marks the D form. Ends that are not written are not given here. Peptide text beside a SMILES is read from it. pGlu = O=C1CC[C@@H](C(=O)O)N1

Data set [1] in a line: Bioavailability / tissue distribution of 125I-labelled peptide in mice. In kind it is in vivo, mouse. The source says: Peptide SEQ ID NO 8 was labeled with ^125I according to Greenwood and Hunter (Greenwood F C and Hunter W M. The preparation of ^125I-labelled human growth hormone of high specific radioactivity. J. Biochem., 89:114-123, 1963), with modifications [Biscayart P L, Paladini A C, Vita N, Roguin L P. Preparation of ^125I-labeled human growth hormone of high quality binding properties endowed with long-term stability. J. Immunoassay, 10, 37-56, 1989; Ribela et al., Protein Exp. Purif., 18(2):115-200, 2000). Under constant shaking, 5 μg of the synthetic SEQ ID NO 8 peptide in PBS were mixed with 1 mCi of ^125I, and 0.8 μg of chloramines T. After 5 minutes, 1 μg metabisulfite and 200 μg potassium iodine were added to finalize the labeling reaction. Purification of the labeled product was performed by reverse-phase chromatography in a disposable micro-column (Sep-Pak C18, Waters) as described by Christophe et al. [Christophe et al., The synthetic peptide trp-lys-tyr-met-val-met-NH2 specifically activates neutrophils through FPRL1/lipoxin A4 receptors and is an agonist for the orphan monocyte-expressed chemoattractant receptor FPRL2. J. Biol. Chem. 276: 21585-21593, 2001]. The reaction product was diluted in three volumes of destined water, and applied to the column that had been pre-treated with destined water. Potassium iodine (5 mM, 20 mL) was added, and the column was washed twice with 20 mL distilled water. The labeled peptide was eluted with 2 mL 100% methanol, and 5 μl aliquots were analyzed in the gamma radiation counter from Nuclear Chicago. […]
The animals were anesthetized after 1, 5, 15, 30, 45, 60, 120 and 180 min after injection, and killed by cervical dislocation, and organs (heart, spleen, liver, kidney, intestines, stomach, thyroid, testicles, and brain) were removed, flushed free of blood with 0.9% saline, and weighed. The radioactivity of each organ was determined in a gamma counter. […]
The dose percentage present in each organ was determined, using an administered dose standard. Radioactivity values were registered, given in dose percentage/mg of tissue.

Data set [2] can be described thus: Determination of Z-pro metabolites in mice urine. Conditions: for Metabolites in the urine: mice, 0.91 mg/Kg intraperitoneally, urine collected after 24 hours, mass spectrometry. In kind it is in vivo, mouse. The method, then: In vivo hydrolysis of peptides SEQ ID NO 1, SEQ ID NO 4, SEQ ID NO 5, SEQ ID NO 8, and SEQ ID NO 15 was investigated in Swiss male mice weighing approximately 22-25 g, which had free access to food and water, and were kept under a light-dark cycle of 12 hour periods.
Groups of 10 mice were treated intraperitoneally with 0.91 mg/Kg of each proline rich oligopeptide per animal, diluted in 200 μl saline. Treated and control animals (not treated) were kept in metabolic cages, and their urine was collected after 24 hours. The urine was pre-purified in a reverse phase Sep-Pak C18 micro column (Waters), which had been previously equilibrated with solvent A (H2O/0.1% TFA). Samples were eluted with 60% solvent B (90% acetonitrile/10% solvent A), lyophilized, and resuspended in 1 ml deionized water to be centrifuged at 14.000 rpm for 5 minutes. The supernatant (500 μl) was fractionated in an analytic HPLC system. The gradient was 5-65% solvent B for 30 minutes, using a flow rate of 1 ml/min and monitoring at 214 nm. Fractions were lyophilized and ressuspended in acetonitrile/H2O (1:1), containing 0.2% formic acid, and were analyzed by mass spectrometry (Q-TOF-Pro). Urine fractions from control and treated animals were compared to determine the presence of metabolites originated from the peptides being tested.

The target in data set [3] is T1, argininosuccinate synthase (AsS) (Mus musculus, UniProt P16460).
T1 construct: Cytosolic and membrane fractions of the renal extract (100 mg/ml total protein) were applied to separate columns; from tissue; host or cells: Balb-c mouse kidney, cytosolic and membrane fractions
T1 sequence (P16460 1-412): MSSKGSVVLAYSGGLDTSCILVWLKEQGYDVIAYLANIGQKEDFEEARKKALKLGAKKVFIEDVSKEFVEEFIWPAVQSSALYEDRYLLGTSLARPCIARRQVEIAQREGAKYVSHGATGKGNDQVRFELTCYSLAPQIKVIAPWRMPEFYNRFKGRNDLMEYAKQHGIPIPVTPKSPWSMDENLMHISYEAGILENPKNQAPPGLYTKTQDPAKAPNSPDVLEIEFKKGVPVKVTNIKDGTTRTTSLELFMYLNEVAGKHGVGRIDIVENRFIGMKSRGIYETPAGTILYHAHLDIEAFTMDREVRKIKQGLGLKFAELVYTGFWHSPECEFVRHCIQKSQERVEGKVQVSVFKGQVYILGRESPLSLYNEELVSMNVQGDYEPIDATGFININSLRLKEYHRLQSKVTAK
The data set is described as follows: Potentiation of argininosuccinate synthase activity (phosphate generated from ATP). It counts as biochemical. The note with it: AsS activated by SEQ ID NO 8. The method, then: Activation of the AsS enzyme of Example 3 by peptide SEQ ID NO 8 was quantified in vitro according to Hao et al. [Hao G., Xie L., Gross S. S. Argininosuccinate synthetase is reversibly inactivated by S-nitrosylation in vitro and in vivo. J. Biol. Chem., 279:36192-36200 (2004)]. This method is based on measuring the quantity of phosphate generated from ATP, when pyrophosphatase is added to the reaction medium. Since the activity of the pyrophosphatase relates directly to the enzymatic activity of the AsS, the quantity of generated pyrophosphate is a direct measurement of the AsS activity.
The AsS enzyme (1 μg) was added to the reaction mixture containing 20 mM Tris-HCl, pH 7.8, 2 mM ATP, 2 mM citrulline, 2 mM aspartate, 6 mM MgCl2, 20 mM KCl, and 0.2 units of pyrophosphatase in a final volume of 200 μL in 96 well microplates. Increasing quantities of the SEQ ID NO 8 peptide (0.5, 1 to 8 μM) were added, and samples were incubated at 37° C. for 60 minutes. The reaction was interrupted by the addition of 200 μL of ammonium molybdate buffer (10 mM ascorbic acid, 2.5 mM ammonium molybdate, 2% sulphuric acid). Resulting phosphate was determined in the samples by spectrophotometry (absorbance at 650 nm), using a standard curve obtained with inorganic phosphate.
The production rate of phosphate (enzymatic activity of the AsS) was activated up to approximately 2.5 fold upon addition of 2 μM peptide SEQ ID NO 8. […] Accessibility of endothelial and inducible nitric oxide synthase to the intracellular citrulline-arginine regeneration pathway. Biochem. Pharmacol. 69: 97-104, 2005].

Data set [4] concerns SK-N-AS cells (human neuroblastoma). As to the kind of experiment: Free intracellular Ca2+ concentration in SK-N-AS cells (fluo-3 AM, confocal microscopy). In kind it is cell-based. The method, then:
In these experiments the variation in free intracellular calcium [Ca^2+]i concentration was measured in SK-N-AS cells (human neuroblastoma, ATCC No. CRL-2137) after addition of 1 μmolar of peptides SEQ ID NO 1 or SEQ ID NO 8, or of 1 μmolar captopril. Cells were kept in DMEM (Dulbecco Modified Medium), supplemented with 10% fetal bovine serum (FBS) and 1% non-essential amino acids, at 5% CO2 atmosphere, at 37° C., and 95% relative humidity. Cells were treated with trypsin, and replicated at adequate cell concentrations.
Measurements of variation in the concentration of free [Ca^2+]i were performed with a confocal microscope LSM 510 (Zeiss, Jena, Germany), as described by Martins et al., (Martins et al., Neuronal differentiation of P19 embryonal carcinoma cells modulates kinin B2 receptor gene expression and function. J. Biol. Chem. 280: 19576-19586, 2005). Approximately 5×10^4 SK-N-AS cells were plated on 60 mm plates 24 hours prior to measurement, and then treated with 4 μM fluo-3 AM (Invitrogen Corporation) in 0.5% DMSO and 0.1% non-ionic surfactant pluronic acid F-127 for 30 minutes at 37° C. Cells were washed with DMEM containing 10% FBS, and transferred to defined medium (5 μg/ml insulin, 30 μg/ml transferrin, 20 μM ethanolamine, 30 nM sodium selenite, 1 μM sodium pyruvate, 1% non-essential amino acids, 1 mM glutamine, 100 μg/ml penicillin, 100 μg/ml streptomycin, 10 mM HEPES pH 7.4 in DMEM). The fluorescent fluo-3 AM was excited at 488 nm, and the fluorescence measured at 526 nm.
Variations in the [Ca^2+]i were measured in non-stimulated cells, and in cells stimulated with peptides SEQ ID NO 1 or SEQ ID NO 8, or with captopril (Sigma Aldrich). Increase of fluorescence was monitored for 2 minutes, and images were acquired in 256×256 pixels every second. At the end of each experiment, 5 μM ionophore (4-Br-A23187) were added, followed by 10 mM EGTA, or 20 μM digitonin to determine maximum and minimum fluorescence, Fmax and Fmin respectively, as described by Grynkiewicz et al., (1985).
Intracellular calcium concentrations [Ca^2+]i, related to fluorescence (F) values obtained after addition of peptides SEQ ID NO 1 or SEQ ID NO 8, were calculated with the equation: [Ca^2+]=Kd(F−Fmin)/(Fmax−F), assuming Kd=450 nM for fluo-3 AM (Hallett et al., 1990).

For the molecule “SEQ ID NO 8/^125I: synthetic oligopeptide SEQ ID NO 8 labeled with ^125I ([pGlu]NWPHPQIPP; also: 125I label, place not given here)”, the “kidney concentration relative to other tissues per gram of tissue” value in data set [1] is on record as “higher than 10 fold”. In addition, in data set [1] (kidney), the “share of the concentration of the injected dose remaining in the kidneys” value is recorded as “approximately 15%” and the “time the radioactivity remains in the kidneys” value is over 3 h.

`CC[C@H](C)[C@H](NC(=O)[C@@H]1CCCN1C(=O)CNC(=O)[C@H](CC(=O)O)NC(=O)[C@@H]1CCC(=O)N1)C(=O)N1CCC[C@H]1C(=O)N1CCC[C@H]1C(=O)O` [SEQ ID NO 4, <EDGPIPP] ([pGlu]DGPIPP-OH): the “Metabolites in the urine” value in data set [2] was “<EDGPIPP”.

As for `CC(N)(CC(=O)O)C(=O)O` (racemic) [MDLA, α-methyl-DL-aspartic acid, reference compound], in data set [3], the “effect of the inhibitor on AsS activation by peptide SEQ ID NO 8” value was “completely blocked; also recorded: completely inhibited”.

Consider <EKWAP [SEQ ID NO 1], for which the “time from the peak until the [Ca2+]i plateau” value in data set [4] stood at 20 s. Also, the “change of intracellular [Ca2+]i” value in data set [4] (1 μM) was “Increase”. The “[Ca2+]i response peak” value in data set [4] (immediately after addition of the peptide) is “approximately 350 nM”. Further, in data set [2] (mice injected intraperitoneally), the “form in which the peptide is excreted in urine” value is given as “exception”. Moreover, in data set [2], the “Metabolites in the urine” value is reported as “<EKW”.

For the molecule <EWGRPPGPPIPP [SEQ ID NO 14], in data set [2], the “Metabolites in the urine” value was “<EWGRPPGPPIPP”.

On to `CC[C@H](C)[C@H](NC(=O)[C@H](CCC(N)=O)NC(=O)[C@@H]1CCCN1C(=O)[C@H](CCCNC(=N)N)NC(=O)[C@@H]1CCCN1C(=O)[C@H](Cc1c[nH]c2ccccc12)NC(=O)[C@@H]1CCC(=O)N1)C(=O)N1CCC[C@H]1C(=O)N1CCC[C@H]1C(=O)O` [SEQ ID NO 5, <EWPRPQIPP], for which the “Metabolites in the urine” value in data set [2] (0.91 mg/kg) was “<EWPRPQIP; also recorded: <EWPRP; also recorded: <EWPRPQIPP”.
